Assays:
Cdk4/CyclinD1 = Cdk4/CyclinD1 (Homo sapiens (Human), UniProt P11802); assay: Cdk4 kinase inhibition assay with recombinant Cdk4/CyclinD1, Rb substrate, [33P]-ATP filter plate; assay type: biochemical; conditions: 25 μM ATP, read-out: Cdk 4 IC50
Method in brief: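 Recombinant Cdk4/CyclinD1 or Cdk6/CyclinD3 phosphorylated Rb protein with [33P]-ATP for 1 h at room temperature. Protein was TCA-precipitated on filter plates and bound radioactivity counted. IC50 by nonlinear regression.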

Cdk6/CyclinD3 = Cdk6/CyclinD3 (Homo sapiens (Human), UniProt Q00534); assay: Cdk6 kinase inhibition assay with recombinant Cdk6/CyclinD3, Rb substrate, [33P]-ATP filter plate; assay type: biochemical; conditions: 25 μM ATP, read-out: Cdk 6 IC50
Sequence of Cdk6/CyclinD3 (Q00534 whole entry): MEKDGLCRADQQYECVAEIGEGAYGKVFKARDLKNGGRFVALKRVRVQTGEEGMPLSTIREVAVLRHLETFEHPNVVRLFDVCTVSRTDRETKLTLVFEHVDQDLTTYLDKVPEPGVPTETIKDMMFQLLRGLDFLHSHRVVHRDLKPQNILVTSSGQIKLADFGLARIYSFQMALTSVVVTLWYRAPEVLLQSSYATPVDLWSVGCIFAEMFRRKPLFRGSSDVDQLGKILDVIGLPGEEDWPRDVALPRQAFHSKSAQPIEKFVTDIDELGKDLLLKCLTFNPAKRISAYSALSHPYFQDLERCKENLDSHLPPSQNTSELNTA
Sequence of Cdk6/CyclinD3 (P30281 whole entry partner): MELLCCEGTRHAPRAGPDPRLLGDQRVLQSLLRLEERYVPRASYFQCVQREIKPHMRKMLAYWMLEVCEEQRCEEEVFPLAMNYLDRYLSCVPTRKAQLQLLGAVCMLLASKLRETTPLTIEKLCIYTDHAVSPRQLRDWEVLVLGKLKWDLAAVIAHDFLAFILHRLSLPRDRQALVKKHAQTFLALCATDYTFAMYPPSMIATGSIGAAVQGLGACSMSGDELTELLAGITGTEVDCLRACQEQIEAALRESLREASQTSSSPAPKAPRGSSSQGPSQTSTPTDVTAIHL
Protocol: The Cdk4 and Cdk6 inhibitory activity of the compounds is measured with a kinase inhibition assay using recombinant Cdk4/CyclinD1 or Cdk6/CyclinD3 protein complexes. The protein substrate used in the assay is the retinoblastoma protein (Rb). The kinase reactions are carried out in a 96-well filter plate (MSDV N6B50, Millipore). […] The mixture is incubated at room temperature for 1 hour and the proteins precipitated with an equal volume of 20% TCA. The plates are washed with 10% TCA according to the manufacturer's instruction and dried at room temperature. The amount of the phosphorylated Rb is determined with a TopCount (PerkinElmer). The IC50 of a compound is determined by nonlinear regression curve fitting using software program Prism 5 (GraphPad Software).

Sequence of Cdk4/CyclinD1 (P11802 whole entry): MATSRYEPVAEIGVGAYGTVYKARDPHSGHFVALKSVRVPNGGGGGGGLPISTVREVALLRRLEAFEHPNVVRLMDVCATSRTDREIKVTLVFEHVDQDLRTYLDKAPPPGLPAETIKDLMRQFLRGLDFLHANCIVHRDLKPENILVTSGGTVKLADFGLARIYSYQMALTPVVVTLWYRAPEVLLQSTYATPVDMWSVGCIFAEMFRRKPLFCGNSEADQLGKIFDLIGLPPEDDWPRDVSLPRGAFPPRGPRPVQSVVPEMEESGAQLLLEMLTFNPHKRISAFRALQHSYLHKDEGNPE
Sequence of Cdk4/CyclinD1 (P24385 whole entry partner): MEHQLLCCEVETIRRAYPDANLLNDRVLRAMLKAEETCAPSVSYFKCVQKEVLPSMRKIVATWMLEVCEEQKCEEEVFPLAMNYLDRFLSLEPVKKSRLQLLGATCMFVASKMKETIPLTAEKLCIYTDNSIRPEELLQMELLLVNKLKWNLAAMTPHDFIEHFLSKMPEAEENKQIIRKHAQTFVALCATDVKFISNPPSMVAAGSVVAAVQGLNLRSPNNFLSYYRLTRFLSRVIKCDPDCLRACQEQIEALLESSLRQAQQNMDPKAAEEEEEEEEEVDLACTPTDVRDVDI

Row | Structure (SMILES) | IC50 (Cdk4/CyclinD1) [nM] | IC50 (Cdk6/CyclinD3) [nM]
1 | COCCn1c2cnccc2c2cnc(Nc3ccc(N4CCC(N(C)C)CC4)cn3)nc21 [Example 314] | 380 | 1500
2 | c1cc(-c2ccc(Nc3ncc4c5ccncc5n(C5CCCC5)c4n3)nn2)ccn1 [Example 259, 9-cyclopentyl-N-(6-(4-pyridinyl)-3-pyridazinyl)-9H-pyrido[4′,3′:4,5]pyrrolo[2,3-d]pyrimidin-2-amine] | 49 | 101
3 | CNC1CCN(c2ccc(Nc3ncc4c5ccnc(F)c5n(C5CCCC5)c4n3)nc2)CC1 [Example 310] | 5 | 13
4 | CCOC(=O)CN1CCN(Cc2ccc(Nc3ncc4c5ccncc5n(C5CCCC5)c4n3)nc2)CC1 [Example 219, Ethyl (4-((6-((9-cyclopentyl-9H-pyrido[4′,3′:4,5]pyrrolo[2,3-d]pyrimidin-2-yl)amino)-3-pyridinyl)methyl)-1-piperazinyl)acetate] | 5.3 | 11
5 | C[C@@H](O)Cn1c2cnccc2c2cnc(Nc3ccc(N4CCC(N(C)C)CC4)cn3)nc21 [Example 357] | 294 | 314
6 | O[C@H]1CCN(Cc2csc(Nc3ncc4c5ccnc(F)c5n(C5CCCC5)c4n3)n2)C1 [Example 181, (3S)-1-((2-((9-Cyclopentyl-8-fluoro-9H-pyrido[4′,3′:4,5]pyrrolo[2,3-d]pyrimidin-2-yl)amino)-1,3-thiazol-4-yl)methyl)-3-pyrrolidinol] | 15 | 26
7 | OCC1CCN(c2ccc(Nc3ncc4c5ccncc5n(C5CCCC5)c4n3)nn2)CC1 [Example 103] | 5.6 | 2.6
8 | c1ccc2c(c1)c1cnc(Nc3ccc(N4CCNCC4)cc3)nc1n2C1CCCCC1 [Example 21, (9-Cyclohexyl-9H-pyrimido[4,5-b]indol-2-yl)-(4-piperazin-1-yl-phenyl)-amine] | 1 | 0.41
9 | CN(CCO)C1CCN(c2ccc(Nc3ncc4c5ccncc5n(C5CCCC5)c4n3)nc2)CC1 [Example 457] | 19 | 37
10 | CC(C)NC1CCN(c2ccc(Nc3ncc4c5ccncc5n(C5CCCC5)c4n3)nc2)CC1 [Example 469] | 5.7 | 20
11 | CC[C@@H](C)n1c2cnccc2c2cnc(Nc3ccc(N4CC[C@@H](O)C4)nn3)nc21 [Example 319] | 22 | 49
12 | C[C@@H](O)CNc1ccc(Nc2ncc3c4ccncc4n(C4CCCC4)c3n2)nn1 [Example 293] | 4.6 | 16
13 | c1ccc2c(c1)CCC2n1c2cnccc2c2cnc(Nc3ccc(N4CCNCC4)cn3)nc21 (stereo not drawn) [Example 25, (9-Indan-1-yl-9H-pyrido[4′,3′:4,5]pyrrolo[2,3-d]pyrimidin-2-yl)-(5-piperazin-1-yl-pyridin-2-yl)-amine] | 30 | 38
14 | CN(C)C1CCN(c2ccc(Nc3ncc4c5ccncc5n(C5CCC5)c4n3)nn2)CC1 [Example 347] | 27 | 27
15 | CN1CCN(c2ccc(Nc3ncc4c5ccccc5n(C5CCCC5)c4n3)nn2)CC1 [Example 301] | 31 | 22
16 | C[C@H](O)CNC1CCN(c2ccc(Nc3ncc4c5ccncc5n(C5CCCC5)c4n3)nn2)CC1 [Example 439] | 3.7 | 5.7
17 | CN1CCN(c2ccc(Nc3ncc4c5ccncc5n(C5CCCC5)c4n3)nc2)CC1 [Example 2, 9-Cyclopentyl-N-(5-(1-(N^4-methylpiperazinyl))-2-pyridinyl)-9H-pyrido-[4′,3′:4,5]pyrrolo[2,3-d]pyrimidin-2-amine] | 13 | 10
18 | OCC1CCN(c2ccc(Nc3ncc4c5ccnc(F)c5n(C5CCCC5)c4n3)nc2)CC1 [Example 187, (1-(6-((9-Cyclopentyl-8-fluoro-9H-pyrido[4′,3′:4,5]pyrrolo[2,3-d]pyrimidin-2-yl)amino)-3-pyridinyl)-4-piperidinyl)methanol] | 2.9 | 2.8
19 | CC[C@@H](C)n1c2cnccc2c2cnc(Nc3ccc(N4CCN[C@@H](C)C4)nn3)nc21 [Example 317] | 12 | 21
20 | C[C@@H](O)CNC1CCN(c2ccc(Nc3ncc4c5ccncc5n(C5CCCC5)c4n3)nc2)CC1 [Example 460] |  | 12
21 | c1cc2c3cnc(Nc4ccc(N5CCNCC5)cc4)nc3n(C3CC4CCC3C4)c2cn1 (stereo not drawn) [Example 40, (9-Bicyclo[2.2.1]hept-2-yl-9H-pyrido[4′,3′:4,5]pyrrolo[2,3-d]pyrimidin-2-yl)-(4-piperazin-1-yl-phenyl)-amine] |  | 2.6

The remaining molecules from weak to strong by IC50 (Cdk6/CyclinD3), led by results:

Row | IC50 (Cdk4/CyclinD1) [nM] | IC50 (Cdk6/CyclinD3) [nM] | Structure (SMILES)
22 | 360 | 370 | C[C@@H](O)Cn1c2cnccc2c2cnc(Nc3ccc(N4CCNCC4)cn3)nc21 [Example 356]
23 | 66 | 112 | O=C(c1cnc(Nc2ncc3c4ccncc4n(C4CCCC4)c3n2)s1)N1CCNCC1 [Example 50, 9-cyclopentyl-N-(5-(1-piperazinylcarbonyl)-1,3-thiazol-2-yl)-9H-pyrido[4′,3′:4,5]pyrrolo[2,3-d]pyrimidin-2-amine]
24 | 142 | 104 | Oc1ccc2c3cnc(Nc4ccc(N5CCNCC5)cn4)nc3n(C3CCCC3)c2n1 [Example 183, 9-Cyclopentyl-2-((5-(1-piperazinyl)-2-pyridinyl)amino)-9H-pyrido[3′,2′:4,5]pyrrolo[2,3-d]pyrimidin-7-ol]
25 | 74 | 102 | CN(C)C1CCN(c2ccc(Nc3ncc4c5ccncc5n(CCCO)c4n3)nc2)CC1 [Example 350]
26 | 42 | 92 | O[C@@H]1CCN(c2ccc(Nc3ncc4c5ccncc5n(C5CCC5)c4n3)nc2)C1 [Example 435]
27 | 22 | 40 | C1=CCN(c2ccc(Nc3ncc4c5ccncc5n(C5CCCC5)c4n3)nn2)CC1 [Example 254, 9-Cyclopentyl-N-(6-(3,6-dihydro-1(2 H)-pyridinyl)-3-pyridazinyl)-9H-pyrido[4′,3′:4,5]pyrrolo[2,3-d]pyrimidin-2-amine]
28 | 7.2 | 40 | CN(C)[C@@H]1CCN(c2ccc(Nc3ncc4c5ccncc5n(C5CCCC5)c4n3)nc2)C1 [Example 289]
29 | 5.9 | 26 | C[C@H](O)CNc1ccc(Nc2ncc3c4ccncc4n(C4CCCC4)c3n2)nn1 [Example 294]
30 | 10 | 22 | OC1CN(C2CCN(c3ccc(Nc4ncc5c6ccncc6n(C6CCCC6)c5n4)nn3)CC2)C1 [Example 448]
31 | 4.8 | 16 | CNCCN(C)C1CCN(c2ccc(Nc3ncc4c5ccncc5n(C5CCCC5)c4n3)nn2)CC1 [Example 443]
32 | 16 | 16 | O=S1(=O)CC=C(c2ccc(Nc3ncc4c5ccnc(F)c5n(C5CCCC5)c4n3)nc2)CC1 [Example 271, 9-Cyclopentyl-N-(5-(1,1-dioxido-3,6-dihydro-2H-thiopyran-4-yl)-2-pyridinyl)-8-fluoro-9H-pyrido[4′,3′:4,5]pyrrolo[2,3-d]pyrimidin-2-amine]
33 | 2.1 | 15.3 | c1ccc2c(c1)c1cnc(Nc3ccc(N4CCNCC4)cn3)nc1n2C1CCOCC1 [Example 38, (5-piperazin-1-yl-pyridin-2-yl)-[9-(tetrahydro-pyran-4-yl)-9H-pyrimido[4,5-b]indol-2-yl]-amine]
34 | 3.1 | 11.1 | OC1CCN(c2ccc(Nc3ncc4c5ccncc5n(C5CCCC5)c4n3)nn2)CC1 [Example 102]
35 | 4.9 | 10 | CN(C)CCNC1CCN(c2ccc(Nc3ncc4c5ccncc5n(C5CCCC5)c4n3)nn2)CC1 [Example 480]
36 | 2.2 | 6.3 | OCC(CO)NC1CCN(c2ccc(Nc3ncc4c5ccncc5n(C5CCCC5)c4n3)nn2)CC1 [Example 445]
37 | 0.94 | 5.1 | c1cc2c3cnc(Nc4ccc(N5CCNCC5)cn4)nc3n(C3CC4CCC3C4)c2cn1 (stereo not drawn) [Example 24, (9-Bicyclo[2.2.1]hept-2-yl-9H-pyrido[4′,3′:4,5]pyrrolo[2,3-d]pyrimidin-2-yl)-(5-piperazin-1-yl-pyridin-2-yl)-amine]
38 | 2 | 5.1 | O=C(O)CNC1CCN(c2ccc(Nc3ncc4c5ccncc5n(C5CCCC5)c4n3)nc2)CC1 [Example 477]
39 | 2.5 | 4.8 | CC(C)n1c2cnccc2c2cnc(Nc3ccc(N4CCC(N(C)C)CC4)nn3)nc21 [Example 160, N-(6-(4-(Dimethylamino)-1-piperidinyl)-3-pyridazinyl)-9-(1-methylethyl)-9H-pyrido[4′,3′:4,5]pyrrolo[2,3-d]pyrimidin-2-amine]
40 | 0.91 | 4.2 | Cc1cc(Nc2ncc3c4ccncc4n(C4CCCC4)c3n2)cnc1N1CCNCC1 [Example 5, 9-cyclopentyl-N-(5-methyl-6-(1-piperazinyl)-3-pyridinyl)-9H-pyrido-[4′,3′:4,5]pyrrolo[2,3-d]pyrimidin-2-amine]
41 | 0.45 | 2.9 | c1cc2c3cnc(Nc4ccc(N5CCNCC5)cc4)nc3n(C3CCCC3)c2cn1 [Example 3, (9-Cyclopentyl-9H-pyrido[4′,3′:4,5]pyrrolo[2,3-d]pyrimidin-2-yl)-(4-piperazin-1-yl-phenyl)-amine]
42 |  | 2 | O[C@@H]1CCN(c2ccc(Nc3ncc4c5ccnc(F)c5n(C5CCCC5)c4n3)nc2)C1 [Example 186A, (3R)-1-(6-((9-cyclopentyl-8-fluoro-9H-pyrido[4′,3′:4,5]pyrrolo[2,3-d]pyrimidin-2-yl)amino)-3-pyridinyl)-3-pyrrolidinol]

Source: US8841312B2, “Fused pyridine, pyrimidine and triazine compounds as cell cycle inhibitors” (Amgen Inc., priority 2007, dated 2014)
